{"source": "patent US9737542B2", "about": "“Pyrrolotriazine kinase inhibitors” (BRISTOL-MYERS SQUIBB COMPANY, priority 2013, dated 2017)"}
{"biological_target": "GST-Xa-hAAK1 (Homo sapiens (Human), UniProt Q2M2I8)", "sequence (Q2M2I8 whole entry)": "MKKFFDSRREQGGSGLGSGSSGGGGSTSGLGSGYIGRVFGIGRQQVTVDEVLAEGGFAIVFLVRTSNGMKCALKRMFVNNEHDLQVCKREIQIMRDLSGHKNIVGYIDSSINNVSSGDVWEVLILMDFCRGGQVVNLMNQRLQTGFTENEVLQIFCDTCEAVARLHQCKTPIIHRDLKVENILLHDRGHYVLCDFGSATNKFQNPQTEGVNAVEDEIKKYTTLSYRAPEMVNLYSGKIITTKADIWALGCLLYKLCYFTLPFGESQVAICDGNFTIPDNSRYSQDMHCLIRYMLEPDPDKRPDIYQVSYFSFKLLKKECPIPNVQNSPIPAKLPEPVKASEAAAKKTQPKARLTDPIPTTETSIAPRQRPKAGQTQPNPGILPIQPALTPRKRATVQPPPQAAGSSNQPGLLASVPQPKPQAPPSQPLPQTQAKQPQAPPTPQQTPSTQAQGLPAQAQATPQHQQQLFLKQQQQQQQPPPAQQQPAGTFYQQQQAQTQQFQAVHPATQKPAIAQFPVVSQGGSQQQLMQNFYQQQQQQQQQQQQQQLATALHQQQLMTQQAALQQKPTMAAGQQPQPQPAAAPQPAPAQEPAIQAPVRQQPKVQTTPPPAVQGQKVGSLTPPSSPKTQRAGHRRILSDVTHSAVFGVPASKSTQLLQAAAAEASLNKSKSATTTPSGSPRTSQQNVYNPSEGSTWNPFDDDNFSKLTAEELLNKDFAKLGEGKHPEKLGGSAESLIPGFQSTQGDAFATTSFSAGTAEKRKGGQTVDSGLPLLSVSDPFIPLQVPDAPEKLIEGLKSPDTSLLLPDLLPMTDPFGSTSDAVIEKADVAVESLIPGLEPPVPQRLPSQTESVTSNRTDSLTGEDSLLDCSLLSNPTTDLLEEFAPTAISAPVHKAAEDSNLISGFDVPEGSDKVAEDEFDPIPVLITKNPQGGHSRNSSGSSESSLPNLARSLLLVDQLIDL", "test": "AAK1 Kinase Assay", "format": "biochemical", "conditions": "ATP 22 μM; 3 hours at room temperature", "units": {"IC50": "nM"}}
{"smiles": "CCNC(=O)c1ccn2ncnc(Nc3cccc(-c4nnn(C(C)C)n4)c3)c12", "note": "[Example 104, N-ethyl-4-((3-(2-isopropyl-2H-tetrazol-5-yl)phenyl)amino)pyrrolo[2,1-f][1,2,4]triazine-5-carboxamide]", "IC50": 195}
{"smiles": "COC(=O)c1cn2ncnc(Nc3cccc(-c4nnn(C(C)C)n4)c3)c2c1CN1CCC(N)CC1", "note": "[Example 111, methyl 5-((4-aminopiperidin-1-yl)methyl)-4-((3-(2-isopropyl-2H-tetrazol-5-yl)phenyl)amino)pyrrolo[2,1-f][1,2,4]triazine-6-carboxylate]", "IC50": 16}
{"smiles": "NC1CCN(Cc2ccn3ncnc(Nc4cccc(-c5noc(C6CCCC6)n5)c4)c23)CC1", "note": "[Example 73, 5-((4-aminopiperidin-1-yl)methyl)-N-(3-(5-cyclopentyl-1,2,4-oxadiazol-3-yl)phenyl)pyrrolo[2,1-f][1,2,4]triazin-4-amine]", "IC50": 16}
{"smiles": "Cc1nnc(-c2cccc(Nc3ncnn4ccc(CN5CC(N)C5)c34)c2)s1", "note": "[Example 19, 5-((3-aminoazetidin-1-yl)methyl)-N-(3-(5-methyl-1,3,4-thiadiazol-2-yl)phenyl)pyrrolo[2,1-f][1,2,4]triazin-4-amine]", "IC50": 2120}
{"smiles": "CC(C)c1nc(-c2ccc(Cl)c(Nc3ncnn4ccc(CN5CCC(N)CC5)c34)c2)no1", "note": "[Example 43, 5-((4-aminopiperidin-1-yl)methyl)-N-(2-chloro-5-(5-isopropyl-1,2,4-oxadiazol-3-yl)phenyl)pyrrolo[2,1-f][1,2,4]triazin-4-amine]", "IC50": 265}
{"smiles": "CC(C)n1nnc(-c2cccc(Nc3ncnn4ccc(CN5[C@@H]6CC[C@H]5CC(O)C6)c34)c2)n1", "note": "(stereo partly drawn) [Example 59, (1R,5S)-8-((4-((3-(2-isopropyl-2H-tetrazol-5-yl)phenyl)amino)pyrrolo[2,1-f][1,2,4]triazin-5-yl)methyl)-8-azabicyclo[3.2.1]octan-3-ol]", "IC50": 128}
{"smiles": "Cc1ccn2ncnc(Nc3cccc(-c4nnn(C(C)C)n4)c3)c12", "note": "[Example 88, N-(3-(2-isopropyl-2H-tetrazol-5-yl)phenyl)-5-methylpyrrolo[2,1-f][1,2,4]triazin-4-amine]", "IC50": 22}
{"smiles": "CC(C)(CCl)c1nc(-c2cccc(Nc3ncnn4cccc34)c2)no1", "note": "[Example 78, N-(3-(5-(1-chloro-2-methylpropan-2-yl)-1,2,4-oxadiazol-3-yl)phenyl)pyrrolo[2,1-f][1,2,4]triazin-4-amine]", "IC50": 112}
{"smiles": "CC(C)n1nnc(-c2cccc(Nc3ncnn4ccc(CN5CCC(C#N)CC5)c34)c2)n1", "note": "[Example 65, 1-((4-((3-(2-isopropyl-2H-tetrazol-5-yl)phenyl)amino)pyrrolo[2,1-f][1,2,4]triazin-5-yl)methyl)piperidine-4-carbonitrile]", "IC50": 72}
{"smiles": "CC(C)c1nc(-c2cccc(Nc3ncnn4cccc34)c2)no1", "note": "[Example 77, N-(3-(5-isopropyl-1,2,4-oxadiazol-3-yl)phenyl)pyrrolo[2,1-f][1,2,4]triazin-4-amine]", "IC50": 291}
{"smiles": "CNC1CCN(Cc2ccn3ncnc(Nc4cc(F)cc(-c5noc(C(C)C)n5)c4)c23)CC1", "note": "[Example 44, N-(3-fluoro-5-(5-isopropyl-1,2,4-oxadiazol-3-yl)phenyl)-5-((4-(methylamino)piperidin-1-yl)methyl)pyrrolo[2,1-f][1,2,4]triazin-4-amine]", "IC50": 10}
{"smiles": "CC(C)(CO)c1nc(-c2cccc(Nc3ncnn4cccc34)c2)no1", "note": "[Example 81, 2-methyl-2-(3-(3-(pyrrolo[2,1-f][1,2,4]triazin-4-ylamino)phenyl)-1,2,4-oxadiazol-5-yl)propan-1-ol]", "IC50": 413}
{"smiles": "Cc1ccn2ncnc(Nc3cccc(-c4nnc(C(C)C)s4)c3)c12", "note": "[Example 87, N-(3-(5-isopropyl-1,3,4-thiadiazol-2-yl)phenyl)-5-methylpyrrolo[2,1-f][1,2,4]triazin-4-amine]", "IC50": 325}
{"smiles": "Cc1ccn2ncnc(Nc3cccc(-c4noc(C(C)(C)CO)n4)c3)c12", "note": "[Example 89, 2-methyl-2-(3-(3-(5-methylpyrrolo[1,2-f][1,2,4]triazin-4-ylamino)phenyl)-1,2,4-oxadiazol-5-yl)propan-1-ol]", "IC50": 207}
{"smiles": "NC1CCN(Cc2ccn3ncnc(Nc4cccc(-c5noc(C6CCCCC6)n5)c4)c23)CC1", "note": "[Example 22, 5-((4-aminopiperidin-1-yl)methyl)-N-(3-(5-cyclohexyl-1,2,4-oxadiazol-3-yl)phenyl)pyrrolo[2,1-f][1,2,4]triazin-4-amine]", "IC50": 14}
{"smiles": "CC(C)n1nnc(-c2cccc(Nc3ncnn4ccc(CN(C)C)c34)c2)n1", "note": "[Example 102, 5-((dimethylamino)methyl)-N-(3-(2-isopropyl-2H-tetrazol-5-yl)phenyl)pyrrolo[2,1-f][1,2,4]triazin-4-amine]", "IC50": 49}
{"biological_target": "GST-Xa-hAAK1 (Homo sapiens (Human), UniProt Q2M2I8)", "test": "AAK1 Kinase Assay", "format": "biochemical", "conditions": "ATP 22 μM; 3 hours at room temperature; listed as IC50 ranges", "units": {"IC50": "nM"}}
{"smiles": "CC(C)c1nnc(-c2cccc(Nc3ncnn4ccc(CN5CC6CNCC6C5)c34)c2)s1", "note": "(stereo not shown) [Example 29, 5-((hexahydropyrrolo[3,4-c]pyrrol-2(1H)-yl)methyl)-N-(3-(5-isopropyl-1,3,4-thiadiazol-2-yl)phenyl)pyrrolo[2,1-f][1,2,4]triazin-4-amine]", "IC50": "100 to 1000"}
{"smiles": "NC1CCN(Cc2ccn3ncnc(Nc4cccc(-c5nc(-c6ccccc6)no5)c4)c23)CC1", "note": "[Example 16, 5-((4-aminopiperidin-1-yl)methyl)-N-(3-(3-phenyl-1,2,4-oxadiazol-5-yl)phenyl)pyrrolo[2,1-f][1,2,4]triazin-4-amine]", "IC50": "100 to 1000"}
{"smiles": "CC(C)c1nc(-c2ccc(O)c(Nc3ncnn4ccc(CN5CCC(N)CC5)c34)c2)no1", "note": "[Example 3, 2-((5-((4-aminopiperidin-1-yl)methyl)pyrrolo[2,1-f][1,2,4]triazin-4-yl)amino)-4-(5-isopropyl-1,2,4-oxadiazol-3-yl)phenol]", "IC50": "10 to 100"}
{"smiles": "NC1CCN(Cc2ccn3ncnc(Nc4cccc(-c5nnc(C6CC6)s5)c4)c23)CC1", "note": "[Example 23, 5-((4-aminopiperidin-1-yl)methyl)-N-(3-(5-cyclopropyl-1,3,4-thiadiazol-2-yl)phenyl)pyrrolo[2,1-f][1,2,4]triazin-4-amine]", "IC50": "100 to 1000"}
{"smiles": "C=Cc1cccc(Nc2ncnn3ccc(CN4CCC(N)CC4)c23)c1", "note": "[Example 4, 5-((4-aminopiperidin-1-yl)methyl)-N-(3-vinylphenyl)pyrrolo[2,1-f][1,2,4]triazin-4-amine]", "IC50": "100 to 1000"}
{"smiles": "NC1CCN(Cc2ccn3ncnc(Nc4cccc(-c5noc(C6CC6)n5)c4)c23)CC1", "note": "[Example 47, 5-((4-aminopiperidin-1-yl)methyl)-N-(3-(5-cyclopropyl-1,2,4-oxadiazol-3-yl)phenyl)pyrrolo[2,1-f][1,2,4]triazin-4-amine]", "IC50": "10 to 100"}
{"smiles": "CC(C)n1nnc(-c2cc(Nc3ncnn4ccc(CN5CCC(N)CC5)c34)cc3[nH]cnc23)n1", "note": "[Example 75, 5-((4-aminopiperidin-1-yl)methyl)-N-(4-(2-isopropyl-2H-tetrazol-5-yl)-1H-benzo[d]imidazol-6-yl)pyrrolo[2,1-f][1,2,4]triazin-4-amine]", "IC50": "100 to 1000"}
{"smiles": "CC(C)c1nnc(-c2cccc(Nc3ncnn4ccc(CN5CC(N)C5)c34)c2)s1", "note": "[Example 28, 5-((3-aminoazetidin-1-yl)methyl)-N-(3-(5-isopropyl-1,3,4-thiadiazol-2-yl)phenyl)pyrrolo[2,1-f][1,2,4]triazin-4-amine]", "IC50": "100 to 1000"}
{"smiles": "CC(C)c1nnc(-c2cccc(Nc3ncnn4ccc(CN5CCOCC5)c34)c2)s1", "note": "[Example 56, N-(3-(5-isopropyl-1,3,4-thiadiazol-2-yl)phenyl)-5-(morpholinomethyl)pyrrolo[2,1-f][1,2,4]triazin-4-amine]", "IC50": "1000 to 5000"}
{"smiles": "CC(C)c1nnc(-c2cccc(Nc3ncnn4ccc(CNCCCN)c34)c2)s1", "note": "[Example 69, N1-((4-((3-(5-isopropyl-1,3,4-thiadiazol-2-yl)phenyl)amino)pyrrolo[2,1-f][1,2,4]triazin-5-yl)methyl)propane-1,3-diamine]", "IC50": "100 to 1000"}
{"smiles": "NC1CCN(Cc2ccn3ncnc(Nc4cccc(-c5csnn5)c4)c23)CC1", "note": "[Example 14, N-(3-(1,2,3-thiadiazol-4-yl)phenyl)-5-((4-aminopiperidin-1-yl)methyl)pyrrolo[2,1-f][1,2,4]triazin-4-amine]", "IC50": "100 to 1000"}
{"smiles": "CC(C)Oc1cc(Nc2ncnn3ccc(CN4CCC(N)CC4)c23)cc(-c2nnn(C(C)C)n2)c1", "note": "[Example 62, 5-((4-aminopiperidin-1-yl)methyl)-N-(3-isopropoxy-5-(2-isopropyl-2H-tetrazol-5-yl)phenyl)pyrrolo[2,1-f][1,2,4]triazin-4-amine]", "IC50": "100 to 1000"}
{"smiles": "CNC1CCN(Cc2ccn3ncnc(Nc4cccc(-c5nnc(C(C)C)o5)c4)c23)CC1", "note": "[Example 40, N-(3-(5-isopropyl-1,3,4-oxadiazol-2-yl)phenyl)-5-((4-(methylamino)piperidin-1-yl)methyl)pyrrolo[2,1-f][1,2,4]triazin-4-amine]", "IC50": "10 to 100"}
{"smiles": "CC(C)c1nc(-c2cc(O)cc(Nc3ncnn4ccc(CN5CCC(N)CC5)c34)c2)no1", "note": "[Example 37, 3-((5-((4-aminopiperidin-1-yl)methyl)pyrrolo[2,1-f][1,2,4]triazin-4-yl)amino)-5-(5-isopropyl-1,2,4-oxadiazol-3-yl)phenol]", "IC50": "1 to 10"}
{"smiles": "CNCc1ccn2ncnc(Nc3cccc(-c4nnn(C(C)C)n4)c3)c12", "note": "[Example 63, N-(3-(2-isopropyl-2H-tetrazol-5-yl)phenyl)-5-((methylamino)methyl)pyrrolo[2,1-f][1,2,4]triazin-4-amine]", "IC50": "100 to 1000"}
{"smiles": "CCC(C)(C)c1nc(-c2cccc(Nc3ncnn4ccc(CN5CCC(N)CC5)c34)c2)no1", "note": "[Example 6, 5-((4-aminopiperidin-1-yl)methyl)-N-(3-(5-(tert-pentyl)-1,2,4-oxadiazol-3-yl)phenyl)pyrrolo[2,1-f][1,2,4]triazin-4-amine]", "IC50": "10 to 100"}
{"smiles": "CNC1CCN(Cc2ccn3ncnc(Nc4cccc(-c5nnc(C)s5)c4)c23)CC1", "note": "[Example 18, N-(3-(5-methyl-1,3,4-thiadiazol-2-yl)phenyl)-5-((4-(methylamino)piperidin-1-yl)methyl)pyrrolo[2,1-f][1,2,4]triazin-4-amine]", "IC50": "100 to 1000"}
{"smiles": "CNC1CCN(Cc2ccn3ncnc(Nc4cccc(-c5nnc(C(C)C)s5)c4)c23)C1", "note": "(stereo not shown) [Example 30, N-(3-(5-isopropyl-1,3,4-thiadiazol-2-yl)phenyl)-5-((3-(methylamino)pyrrolidin-1-yl)methyl)pyrrolo[2,1-f][1,2,4]triazin-4-amine]", "IC50": "100 to 1000"}
